The source made the active and inactive calls. No rule for the calls is given here.
target: Intestinal-type alkaline phosphatase (Homo sapiens) (UniProt P09923); experiment: inhibition of intestinal alkaline phosphatase activity – biochemical, luminescence, set 2, SAR follow-up (AID 540265); conditions: purified human IAP, luminescent substrate read-out
Sequence (P09923 whole entry, looked up): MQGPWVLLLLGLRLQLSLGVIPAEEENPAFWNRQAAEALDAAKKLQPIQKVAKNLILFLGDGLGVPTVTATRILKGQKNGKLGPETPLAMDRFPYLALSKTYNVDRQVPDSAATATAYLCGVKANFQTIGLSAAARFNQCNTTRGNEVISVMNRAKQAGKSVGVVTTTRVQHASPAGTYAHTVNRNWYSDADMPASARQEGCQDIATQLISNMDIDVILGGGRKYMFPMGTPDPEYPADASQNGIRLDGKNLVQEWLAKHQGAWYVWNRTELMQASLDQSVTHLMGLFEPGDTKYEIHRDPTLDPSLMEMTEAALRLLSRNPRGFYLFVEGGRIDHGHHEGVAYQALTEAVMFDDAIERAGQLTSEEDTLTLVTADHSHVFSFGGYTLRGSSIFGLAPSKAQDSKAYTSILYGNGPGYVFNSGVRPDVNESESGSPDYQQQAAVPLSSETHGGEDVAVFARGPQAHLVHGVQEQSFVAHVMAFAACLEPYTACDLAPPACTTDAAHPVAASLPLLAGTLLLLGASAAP

IC50, inactive:
O=C(CNS(=O)(=O)c1ccc2[nH]c(=O)oc2c1)NCc1ccc2c(c1)OCO2 > 100 µM
O=C(CNS(=O)(=O)c1ccc2[nH]c(=O)oc2c1)Nc1ccc2c(c1)OCO2 > 100 µM
Cc1ccc(C)c(NC(=O)CCNS(=O)(=O)c2ccc3[nH]c(=O)oc3c2)c1 > 100 µM
COc1ccc(NC(=O)CNS(=O)(=O)c2ccc3[nH]c(=O)oc3c2)cc1OC > 100 µM
N#Cc1ccc(CNC(=O)CCNS(=O)(=O)c2ccc3[nH]c(=O)oc3c2)cc1 > 100 µM
